In one test the target is Bcr/Abl fusion protein (Homo sapiens, UniProt P00519). The test is described as follows: Inhibition of Bcr-Abl (unknown origin) after 1 hr by luminescence assay. The test is classed as protein assay.
For another test, the system named is K562. The test is described as follows: cells. Conditions: Homo sapiens, K562, 48 h.
The next test has as its target K562 (Homo sapiens). The experiment in a line: Antiproliferative activity against human K562 cells by MTT assay.

Each structure is given as a SMILES string.

Bcr/Abl fusion protein, sequence (P00519 whole entry, the tested form may be a part): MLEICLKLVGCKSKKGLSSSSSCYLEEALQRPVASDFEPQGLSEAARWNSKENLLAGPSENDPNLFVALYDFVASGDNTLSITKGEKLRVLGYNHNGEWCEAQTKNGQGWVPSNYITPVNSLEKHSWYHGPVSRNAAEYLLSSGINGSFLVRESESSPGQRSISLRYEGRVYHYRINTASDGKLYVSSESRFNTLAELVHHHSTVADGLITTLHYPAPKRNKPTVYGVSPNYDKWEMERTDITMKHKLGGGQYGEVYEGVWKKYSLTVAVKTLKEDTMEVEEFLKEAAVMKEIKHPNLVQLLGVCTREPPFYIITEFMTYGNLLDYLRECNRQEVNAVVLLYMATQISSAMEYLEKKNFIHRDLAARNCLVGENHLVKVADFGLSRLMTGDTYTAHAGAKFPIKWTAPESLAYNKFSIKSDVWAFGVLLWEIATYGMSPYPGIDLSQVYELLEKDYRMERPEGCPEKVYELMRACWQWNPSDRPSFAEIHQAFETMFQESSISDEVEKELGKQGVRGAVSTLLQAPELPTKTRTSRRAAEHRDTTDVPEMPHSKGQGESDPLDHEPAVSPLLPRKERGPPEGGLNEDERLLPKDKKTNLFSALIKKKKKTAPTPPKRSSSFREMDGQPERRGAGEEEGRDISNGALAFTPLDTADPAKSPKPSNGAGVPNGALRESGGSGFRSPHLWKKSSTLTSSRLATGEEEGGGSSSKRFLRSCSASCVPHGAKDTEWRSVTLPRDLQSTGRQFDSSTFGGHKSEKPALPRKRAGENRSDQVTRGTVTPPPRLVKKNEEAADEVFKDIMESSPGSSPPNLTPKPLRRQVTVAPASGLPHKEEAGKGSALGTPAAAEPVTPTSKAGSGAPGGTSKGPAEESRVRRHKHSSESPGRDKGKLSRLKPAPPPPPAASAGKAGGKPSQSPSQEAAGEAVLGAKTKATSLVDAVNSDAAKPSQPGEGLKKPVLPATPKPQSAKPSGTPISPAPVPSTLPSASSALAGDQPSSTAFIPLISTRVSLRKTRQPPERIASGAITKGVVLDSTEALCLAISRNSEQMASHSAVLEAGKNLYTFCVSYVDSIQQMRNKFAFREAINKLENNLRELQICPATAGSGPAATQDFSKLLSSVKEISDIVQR
Bcr/Abl fusion protein, sequence (P11274 whole entry, further chain, the tested form may be a part): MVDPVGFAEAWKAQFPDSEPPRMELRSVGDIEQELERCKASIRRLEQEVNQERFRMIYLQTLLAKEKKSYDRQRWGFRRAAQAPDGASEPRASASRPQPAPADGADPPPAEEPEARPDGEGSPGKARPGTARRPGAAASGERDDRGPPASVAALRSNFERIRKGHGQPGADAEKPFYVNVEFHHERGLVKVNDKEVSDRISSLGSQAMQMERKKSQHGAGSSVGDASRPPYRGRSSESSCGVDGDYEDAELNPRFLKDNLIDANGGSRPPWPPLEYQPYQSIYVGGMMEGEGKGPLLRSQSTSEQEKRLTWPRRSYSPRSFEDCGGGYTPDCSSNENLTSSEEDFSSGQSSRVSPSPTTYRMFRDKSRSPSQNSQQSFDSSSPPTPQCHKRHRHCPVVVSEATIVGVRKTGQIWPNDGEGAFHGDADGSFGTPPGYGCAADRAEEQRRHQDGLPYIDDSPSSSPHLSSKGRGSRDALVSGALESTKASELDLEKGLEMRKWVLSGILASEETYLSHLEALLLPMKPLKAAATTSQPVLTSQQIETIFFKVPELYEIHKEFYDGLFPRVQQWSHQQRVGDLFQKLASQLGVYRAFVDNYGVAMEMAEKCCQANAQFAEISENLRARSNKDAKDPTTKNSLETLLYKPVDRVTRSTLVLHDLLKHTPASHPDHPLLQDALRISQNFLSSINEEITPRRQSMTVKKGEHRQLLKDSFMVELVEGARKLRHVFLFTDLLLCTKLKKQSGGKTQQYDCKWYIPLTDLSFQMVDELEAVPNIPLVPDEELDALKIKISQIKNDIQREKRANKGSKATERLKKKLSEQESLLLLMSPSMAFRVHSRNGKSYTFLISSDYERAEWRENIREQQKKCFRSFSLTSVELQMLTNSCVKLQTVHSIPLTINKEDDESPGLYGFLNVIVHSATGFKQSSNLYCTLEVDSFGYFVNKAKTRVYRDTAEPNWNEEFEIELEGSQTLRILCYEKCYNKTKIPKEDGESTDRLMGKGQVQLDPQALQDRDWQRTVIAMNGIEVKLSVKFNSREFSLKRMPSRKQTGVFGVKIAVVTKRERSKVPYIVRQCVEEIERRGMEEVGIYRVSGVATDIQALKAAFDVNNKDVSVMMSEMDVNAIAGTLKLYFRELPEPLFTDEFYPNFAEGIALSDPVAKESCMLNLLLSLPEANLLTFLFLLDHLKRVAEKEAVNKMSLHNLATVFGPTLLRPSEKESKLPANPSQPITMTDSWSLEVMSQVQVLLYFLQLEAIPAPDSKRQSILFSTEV

For the molecule `COc1ccc(Nc2cc(-c3ccc(C(=O)NCCNC(=O)c4cccc(C(F)(F)F)c4)cc3)ncn2)cc1`, the figures for the IC50 against Bcr/Abl fusion protein and with K562 were 2.59 µM and 65.3 µM, respectively.
For `COc1ccc(Nc2cc(-c3ccc(C(=O)NCCNC(=O)c4cccc(OC)c4)cc3)ncn2)cc1`, in that order: 8.53 µM and 11.2 µM.
With `COc1ccc(Nc2cc(-c3ccc(C(=O)NCCNC(=O)c4ccccc4C)cc3)ncn2)cc1`, the IC50 was found to be 14.5 µM at Bcr/Abl fusion protein and 38.5 µM in the test on K562.
The matching figures for `COc1ccc(Nc2cc(-c3ccc(C(=O)NCCNC(=O)c4ccc(C(C)(C)C)cc4)cc3)ncn2)cc1`: above 100 µM and 0.83 µM.
For `COc1ccc(Nc2cc(-c3ccc(C(=O)NCCNC(=O)c4cccc(N(C)C)c4)cc3)ncn2)cc1`, in that order: 9.25 µM and 0.85 µM.
For `COc1ccc(Nc2cc(-c3ccc(C(=O)NCCNC(=O)c4cccc(F)c4)cc3)ncn2)cc1`, in that order: 11.3 µM and 33.9 µM.
Turning to `COc1ccc(Nc2cc(-c3ccc(C(=O)NCCNC(=O)c4ccccc4Cl)cc3)ncn2)cc1`, the IC50 stood at 9.24 µM at Bcr/Abl fusion protein and 0.64 µM with K562.
In the test on K562, `COc1ccc(Nc2cc(-c3ccc(C(=O)NCCNC(=O)c4ccc(F)cc4)cc3)ncn2)cc1` yielded an IC50 of 10.9 µM.
As for `COc1ccc(Nc2cc(-c3ccc(C(=O)NCCNC(=O)c4ccc(F)c(F)c4)cc3)ncn2)cc1`, the IC50 is 4.4 µM against Bcr/Abl fusion protein and 6.2 µM in the test with K562.
The matching figures for `COc1ccc(Nc2cc(-c3ccc(C(=O)NCCNC(=O)c4c(F)cccc4Cl)cc3)ncn2)cc1`: 6.2 µM and 8.5 µM.
Turning to `COc1ccc(Nc2cc(-c3ccc(C(=O)N4CCN(C(=O)c5ccccc5F)CC4)cc3)ncn2)cc1`, the IC50 on Bcr/Abl fusion protein and in the test with K562 was 8.96 µM each time.
`COc1ccc(Nc2cc(-c3ccc(C(=O)N4CCN(C(=O)c5ccccc5Cl)CC4)cc3)ncn2)cc1` gave an IC50 in the test on K562 of 73.9 µM. In other words, the double-digit micromolar range.
In the case of `COc1ccc(Nc2cc(-c3ccc(C(=O)N4CCN(C(=O)c5ccc(F)cc5)CC4)cc3)ncn2)cc1`, the IC50 was determined as 0.017 µM on Bcr/Abl fusion protein and 35.7 µM in the test on K562.
For `COc1ccc(Nc2cc(-c3ccc(C(=O)N4CCN(C(=O)c5ccc(OC)cc5)CC4)cc3)ncn2)cc1`, in that order: above 100 µM and above 100 µM.
Molecule `COc1ccc(Nc2cc(-c3ccc(C(=O)N4CCN(C(=O)c5cccc(F)c5)CC4)cc3)ncn2)cc1` had an IC50 in the test with K562 of 42.2 µM. This lies in the double-digit micromolar range.
For `COc1ccc(Nc2cc(-c3ccc(C(=O)N4CCN(C(=O)c5ccc(Cl)cc5Cl)CC4)cc3)ncn2)cc1`, the IC50 with K562 and on K562 (Homo sapiens) was 35 µM throughout.
In the case of `COc1ccc(Nc2cc(-c3ccc(C(=O)N4CCN(C(=O)c5ccc(F)c(F)c5)CC4)cc3)ncn2)cc1`, the IC50 in the test on K562 and at K562 (Homo sapiens) was 15.3 µM in each case.
As to `COc1ccc(Nc2cc(-c3ccc(C(=O)N4CCN(C(=O)c5cccc(C(F)(F)F)c5)CC4)cc3)ncn2)cc1`, the IC50 in the test on K562 and against K562 (Homo sapiens) was 51.9 µM in each case.
`COc1ccc(Nc2cc(-c3ccc(C(=O)N4CCN(C(=O)c5cccc(C)c5)CC4)cc3)ncn2)cc1`: the IC50 against Bcr/Abl fusion protein and in the test on K562 was above 100 µM throughout.
Regarding `COc1ccc(Nc2cc(-c3ccc(C(=O)N4CCN(C(=O)c5cccc(N(C)C)c5)CC4)cc3)ncn2)cc1`, the IC50 with K562 and against K562 (Homo sapiens) was above 100 µM each time.

(Values after ChEMBL document CHEMBL3616476, “Expanding the structural diversity of Bcr-Abl inhibitors: Hybrid molecules based on GNF-2 and Imatinib” (Bioorg Med Chem Lett, 2015).)
